This is an account of results in paper PMC9986241 (Signal Transduction and Targeted Therapy, 2023).

Structures are written as SMILES.

One assay concerns the target T1, CRAF (Homo sapiens, UniProt P04049).
T1 construct: endogenous in cells; host or cells: A375
Put plainly: Erianin-conjugated Sepharose 4B bead pull-down assay. The assay is classed as binding. Conditions: in vitro and ex vivo (A375 cell lysate). As to the method:
293 T cells were transfected with plasmids of pcDNA3.1-3×Flag-C-MAP2K1/MAP2K1 (K97A, M146A), MAP2K2/MAP2K1 (K101A, M150A), or CRAF/CRAF (K375A). […]
Cell lysate (500 μg) or recombinant proteins (200 ng) were incubated with erianin-CNBr activated sepharose 4B overnight at 4 °C, and the protein-beads complex was washed four times by the use of rotational incubator to remove non-specific binding. Western blotting was developed to check the pull-down bands.

The target of the next assay is T2, KDR(h) (Homo sapiens, UniProt P35968).
T2 construct: purchased Eurofins KinaseProfiler
The assay can be described thus: KinaseProfiler enzyme profiling. The assay is classed as biochemical. Conditions: 100 nM. The method, then:
(§1) Enzyme profiling services were provided by KinaseProfiler™ (Eurofin, Brussels, Belgium). The concentration of erianin was 100 nM, and total 70 kinases were tested in this in vitro screening and profiling services (2 repetitions). For more details, refer to the manufacturer’s instructions (www.eurofinsdiscoveryservices.com).

For another assay, the target named is T3, EphB1(h) (Homo sapiens, UniProt P54762).
T3 construct: purchased Eurofins KinaseProfiler
The assay can be described thus: KinaseProfiler enzyme profiling. As to conditions: 100 nM. The assay is classed as biochemical. As to the method: as §1

The next assay concerns the target T4, Pim-3(h) (Homo sapiens, UniProt Q86V86).
T4 construct: purchased Eurofins KinaseProfiler
Put plainly: KinaseProfiler enzyme profiling. The assay is classed as biochemical. Conditions: 100 nM. As to the method:
as §1

A further assay concerns the target T5, Flt1(h) (Homo sapiens, UniProt P17948).
T5 construct: purchased Eurofins KinaseProfiler
The assay can be described thus: KinaseProfiler enzyme profiling. The assay is classed as biochemical. Conditions: 100 nM. The method, then: as §1

The next assay addresses T6, Pim-2(h) (Homo sapiens, UniProt Q9P1W9).
T6 construct: purchased Eurofins KinaseProfiler
Put plainly: KinaseProfiler enzyme profiling. In kind it is biochemical. Conditions: 100 nM. As to the method:
as §1

A further assay has as its target T7, Wee1(h) (Homo sapiens, UniProt P30291).
T7 construct: purchased Eurofins KinaseProfiler
The assay can be described thus: KinaseProfiler enzyme profiling. The assay is classed as biochemical. Conditions: 100 nM. As to the method: as §1

A further assay deals with T8, eEF-2K(h) (Homo sapiens, UniProt O00418).
T8 construct: purchased Eurofins KinaseProfiler
The assay can be described thus: KinaseProfiler enzyme profiling. The assay is classed as biochemical. Conditions: 100 nM. The method, then: as §1

For another assay, the target named is T9, A-Raf(h) (Homo sapiens, UniProt P10398).
T9 construct: purchased Eurofins KinaseProfiler
The assay can be described thus: KinaseProfiler enzyme profiling. The assay is classed as biochemical. Conditions: 100 nM. As to the method:
as §1

The next assay has as its target T10, CDK5/p25(h) (Homo sapiens, UniProt Q00535).
T10 construct: purchased Eurofins KinaseProfiler
Put plainly: KinaseProfiler enzyme profiling. In kind it is biochemical. Conditions: 100 nM. The method, then: as §1

For another assay, the target named is T11, Fgr(h) (Homo sapiens, UniProt P09769).
T11 construct: purchased Eurofins KinaseProfiler
Put plainly: KinaseProfiler enzyme profiling. The assay is classed as biochemical. Conditions: 100 nM. As to the method:
as §1

The target of another assay is T12, BTK(h) (Homo sapiens, UniProt Q06187).
T12 construct: purchased Eurofins KinaseProfiler
Put plainly: KinaseProfiler enzyme profiling. The assay is classed as biochemical. Conditions: 100 nM. The method, then: as §1

A further assay deals with T13, Ros(h) (Homo sapiens, UniProt P08922).
T13 construct: purchased Eurofins KinaseProfiler
Put plainly: KinaseProfiler enzyme profiling. The assay is classed as biochemical. As to conditions: 100 nM. As to the method: as §1

The next assay concerns the target T14, CSK(h) (Homo sapiens, UniProt P41240).
T14 construct: purchased Eurofins KinaseProfiler
The assay can be described thus: KinaseProfiler enzyme profiling. The assay is classed as biochemical. The method, then: as §1

A further assay concerns the target T15, CK1γ1(h) (Homo sapiens, UniProt Q9HCP0).
T15 construct: purchased Eurofins KinaseProfiler
Put plainly: KinaseProfiler enzyme profiling. In kind it is biochemical. As to the method:
as §1

A further assay addresses T16, FGFR2(h) (Homo sapiens, UniProt P21802).
T16 construct: purchased Eurofins KinaseProfiler
The assay can be described thus: KinaseProfiler enzyme profiling. The assay is classed as biochemical. As to the method:
as §1

The next assay deals with T17, NIM1(h) (Homo sapiens, UniProt Q8IY84).
T17 construct: purchased Eurofins KinaseProfiler
Put plainly: KinaseProfiler enzyme profiling. In kind it is biochemical. As to the method: as §1

In another assay the target is T18, ARK5(h) (Homo sapiens, UniProt O60285).
T18 construct: purchased Eurofins KinaseProfiler
Put plainly: KinaseProfiler enzyme profiling. The assay is classed as biochemical. The method, then: as §1

A further assay addresses T19, EphB2(h) (Homo sapiens, UniProt P29323).
T19 construct: purchased Eurofins KinaseProfiler
Put plainly: KinaseProfiler enzyme profiling. The assay is classed as biochemical. The method, then: as §1

A further assay concerns the target T20, DYRK2(h) (Homo sapiens, UniProt Q92630).
T20 construct: purchased Eurofins KinaseProfiler
The assay can be described thus: KinaseProfiler enzyme profiling. The assay is classed as biochemical. As to the method: as §1

In a further assay the target is T21, FGFR3(h) (Homo sapiens, UniProt P22607).
T21 construct: purchased Eurofins KinaseProfiler
Put plainly: KinaseProfiler enzyme profiling. In kind it is biochemical. The method, then:
as §1

For another assay, the target named is T22, Mer(h) (Homo sapiens, UniProt Q12866).
T22 construct: purchased Eurofins KinaseProfiler
The assay can be described thus: KinaseProfiler enzyme profiling. In kind it is biochemical. The method, then:
as §1

A further assay addresses T23, MKK6(h) (Homo sapiens, UniProt P52564).
T23 construct: purchased Eurofins KinaseProfiler
Put plainly: KinaseProfiler enzyme profiling. In kind it is biochemical. The method, then: as §1

In another assay the target is T24, MKK4(m) (Mus musculus, UniProt P47809).
T24 construct: purchased Eurofins KinaseProfiler
Put plainly: KinaseProfiler enzyme profiling. The assay is classed as biochemical. The method, then:
as §1

Another assay has as its target T25, CK2(h) (Homo sapiens, UniProt P68400).
T25 construct: purchased Eurofins KinaseProfiler
Put plainly: KinaseProfiler enzyme profiling. In kind it is biochemical. As to the method: as §1

A further assay has as its target T26, CDK5/p35(h) (Homo sapiens, UniProt Q00535).
T26 construct: purchased Eurofins KinaseProfiler
Put plainly: KinaseProfiler enzyme profiling. In kind it is biochemical. As to the method:
as §1

The target in a further assay is T27, DCAMKL3(h) (Homo sapiens, UniProt Q9C098).
T27 construct: purchased Eurofins KinaseProfiler
Put plainly: KinaseProfiler enzyme profiling. The assay is classed as biochemical. The method, then:
as §1

The target in a further assay is T28, MST4(h) (Homo sapiens, UniProt Q9P289).
T28 construct: purchased Eurofins KinaseProfiler
The assay can be described thus: KinaseProfiler enzyme profiling. The assay is classed as biochemical. The method, then: as §1

The target of a further assay is T29, SAPK2a(h) (Homo sapiens, UniProt Q16539).
T29 construct: purchased Eurofins KinaseProfiler
The assay can be described thus: KinaseProfiler enzyme profiling. In kind it is biochemical. As to the method: as §1

In another assay the target is T30, NEK6(h) (Homo sapiens, UniProt Q9HC98).
T30 construct: purchased Eurofins KinaseProfiler
Put plainly: KinaseProfiler enzyme profiling. In kind it is biochemical. The method, then: as §1

The target of the next assay is T31, NEK7(h) (Homo sapiens, UniProt Q8TDX7).
T31 construct: purchased Eurofins KinaseProfiler
The assay can be described thus: KinaseProfiler enzyme profiling. In kind it is biochemical. As to the method:
as §1

The target of the next assay is T32, ErbB4(h) (Homo sapiens, UniProt Q15303).
T32 construct: purchased Eurofins KinaseProfiler
Put plainly: KinaseProfiler enzyme profiling. The assay is classed as biochemical. The method, then: as §1

The target of a further assay is T33, MST2(h) (Homo sapiens, UniProt Q13188).
T33 construct: purchased Eurofins KinaseProfiler
Put plainly: KinaseProfiler enzyme profiling. In kind it is biochemical. As to the method: as §1

Another assay has as its target T34, NEK1(h) (Homo sapiens, UniProt Q96PY6).
T34 construct: purchased Eurofins KinaseProfiler
Put plainly: KinaseProfiler enzyme profiling. In kind it is biochemical. The method, then: as §1

A further assay has as its target T35, PAK6(h) (Homo sapiens, UniProt Q9NQU5).
T35 construct: purchased Eurofins KinaseProfiler
The assay can be described thus: KinaseProfiler enzyme profiling. In kind it is biochemical. The method, then: as §1

A further assay has as its target T36, CDK18/cyclinY(h) (Homo sapiens, UniProt Q07002).
T36 construct: purchased Eurofins KinaseProfiler
The assay can be described thus: KinaseProfiler enzyme profiling. The assay is classed as biochemical. The method, then:
as §1

The target in the next assay is T37, PAK5(h) (Homo sapiens, UniProt Q9P286).
T37 construct: purchased Eurofins KinaseProfiler
Put plainly: KinaseProfiler enzyme profiling. The assay is classed as biochemical. As to the method: as §1

T8 sequence (O00418 whole entry): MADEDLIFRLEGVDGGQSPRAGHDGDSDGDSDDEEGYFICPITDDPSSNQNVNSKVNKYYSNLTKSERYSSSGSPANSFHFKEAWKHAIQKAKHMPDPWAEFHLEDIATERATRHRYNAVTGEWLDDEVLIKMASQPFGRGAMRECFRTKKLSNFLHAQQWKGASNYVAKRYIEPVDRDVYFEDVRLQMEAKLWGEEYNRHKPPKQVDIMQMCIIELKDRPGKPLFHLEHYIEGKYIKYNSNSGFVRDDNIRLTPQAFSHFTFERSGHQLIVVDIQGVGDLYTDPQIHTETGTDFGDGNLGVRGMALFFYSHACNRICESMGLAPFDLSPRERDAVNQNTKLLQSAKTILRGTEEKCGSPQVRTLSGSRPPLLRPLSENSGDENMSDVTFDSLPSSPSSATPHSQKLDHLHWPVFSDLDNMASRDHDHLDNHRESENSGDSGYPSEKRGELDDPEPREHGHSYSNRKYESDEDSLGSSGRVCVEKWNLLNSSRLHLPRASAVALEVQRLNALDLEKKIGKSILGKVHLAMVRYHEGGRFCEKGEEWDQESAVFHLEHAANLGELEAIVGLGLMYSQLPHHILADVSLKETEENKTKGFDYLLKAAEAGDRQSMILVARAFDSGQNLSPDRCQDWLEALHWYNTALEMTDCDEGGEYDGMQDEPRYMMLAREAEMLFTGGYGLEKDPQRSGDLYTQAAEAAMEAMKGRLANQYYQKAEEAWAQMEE
T24 sequence (P47809 2-397 limits assumed): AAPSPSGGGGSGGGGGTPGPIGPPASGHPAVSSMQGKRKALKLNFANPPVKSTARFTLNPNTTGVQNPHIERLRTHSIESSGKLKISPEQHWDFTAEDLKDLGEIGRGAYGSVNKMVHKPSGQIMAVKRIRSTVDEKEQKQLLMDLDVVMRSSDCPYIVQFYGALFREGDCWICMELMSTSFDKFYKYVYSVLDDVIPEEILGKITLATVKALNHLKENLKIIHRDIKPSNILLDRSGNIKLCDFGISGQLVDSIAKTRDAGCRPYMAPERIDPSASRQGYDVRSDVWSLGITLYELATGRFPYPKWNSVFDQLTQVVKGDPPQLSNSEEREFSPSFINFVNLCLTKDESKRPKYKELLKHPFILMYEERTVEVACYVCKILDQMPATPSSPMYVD
T34 sequence (Q96PY6 whole entry): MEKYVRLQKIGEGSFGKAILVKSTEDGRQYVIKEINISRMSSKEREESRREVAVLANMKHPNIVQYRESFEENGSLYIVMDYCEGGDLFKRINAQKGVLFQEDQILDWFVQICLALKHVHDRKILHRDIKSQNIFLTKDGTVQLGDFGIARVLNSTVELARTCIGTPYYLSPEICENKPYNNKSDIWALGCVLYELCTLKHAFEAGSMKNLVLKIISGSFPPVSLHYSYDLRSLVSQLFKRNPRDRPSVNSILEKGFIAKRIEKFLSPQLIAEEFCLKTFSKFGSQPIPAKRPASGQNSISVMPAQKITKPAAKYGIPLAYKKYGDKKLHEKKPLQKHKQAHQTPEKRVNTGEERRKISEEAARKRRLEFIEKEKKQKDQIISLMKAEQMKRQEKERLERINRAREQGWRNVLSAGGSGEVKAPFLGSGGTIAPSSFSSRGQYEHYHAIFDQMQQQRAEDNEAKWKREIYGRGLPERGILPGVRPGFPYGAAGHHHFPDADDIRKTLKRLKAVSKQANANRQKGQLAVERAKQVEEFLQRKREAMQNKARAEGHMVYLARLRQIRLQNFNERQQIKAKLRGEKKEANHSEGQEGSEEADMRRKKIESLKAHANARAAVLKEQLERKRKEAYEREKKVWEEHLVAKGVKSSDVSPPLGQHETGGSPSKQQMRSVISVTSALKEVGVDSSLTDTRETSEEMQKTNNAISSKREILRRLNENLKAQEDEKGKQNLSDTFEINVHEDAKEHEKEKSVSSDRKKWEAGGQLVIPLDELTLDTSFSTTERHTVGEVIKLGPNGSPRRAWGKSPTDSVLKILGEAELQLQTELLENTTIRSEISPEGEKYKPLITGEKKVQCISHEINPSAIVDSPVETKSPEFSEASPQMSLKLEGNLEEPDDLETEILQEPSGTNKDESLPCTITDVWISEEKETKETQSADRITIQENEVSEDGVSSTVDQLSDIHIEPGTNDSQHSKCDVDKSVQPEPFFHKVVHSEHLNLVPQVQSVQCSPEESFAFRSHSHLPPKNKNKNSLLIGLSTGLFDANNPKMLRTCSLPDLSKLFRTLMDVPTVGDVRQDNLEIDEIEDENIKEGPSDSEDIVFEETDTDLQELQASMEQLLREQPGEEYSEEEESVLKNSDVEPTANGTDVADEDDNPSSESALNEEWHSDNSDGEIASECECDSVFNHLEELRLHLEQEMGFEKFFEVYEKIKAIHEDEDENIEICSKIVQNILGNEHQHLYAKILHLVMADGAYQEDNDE
T32 sequence (Q15303 26-1308): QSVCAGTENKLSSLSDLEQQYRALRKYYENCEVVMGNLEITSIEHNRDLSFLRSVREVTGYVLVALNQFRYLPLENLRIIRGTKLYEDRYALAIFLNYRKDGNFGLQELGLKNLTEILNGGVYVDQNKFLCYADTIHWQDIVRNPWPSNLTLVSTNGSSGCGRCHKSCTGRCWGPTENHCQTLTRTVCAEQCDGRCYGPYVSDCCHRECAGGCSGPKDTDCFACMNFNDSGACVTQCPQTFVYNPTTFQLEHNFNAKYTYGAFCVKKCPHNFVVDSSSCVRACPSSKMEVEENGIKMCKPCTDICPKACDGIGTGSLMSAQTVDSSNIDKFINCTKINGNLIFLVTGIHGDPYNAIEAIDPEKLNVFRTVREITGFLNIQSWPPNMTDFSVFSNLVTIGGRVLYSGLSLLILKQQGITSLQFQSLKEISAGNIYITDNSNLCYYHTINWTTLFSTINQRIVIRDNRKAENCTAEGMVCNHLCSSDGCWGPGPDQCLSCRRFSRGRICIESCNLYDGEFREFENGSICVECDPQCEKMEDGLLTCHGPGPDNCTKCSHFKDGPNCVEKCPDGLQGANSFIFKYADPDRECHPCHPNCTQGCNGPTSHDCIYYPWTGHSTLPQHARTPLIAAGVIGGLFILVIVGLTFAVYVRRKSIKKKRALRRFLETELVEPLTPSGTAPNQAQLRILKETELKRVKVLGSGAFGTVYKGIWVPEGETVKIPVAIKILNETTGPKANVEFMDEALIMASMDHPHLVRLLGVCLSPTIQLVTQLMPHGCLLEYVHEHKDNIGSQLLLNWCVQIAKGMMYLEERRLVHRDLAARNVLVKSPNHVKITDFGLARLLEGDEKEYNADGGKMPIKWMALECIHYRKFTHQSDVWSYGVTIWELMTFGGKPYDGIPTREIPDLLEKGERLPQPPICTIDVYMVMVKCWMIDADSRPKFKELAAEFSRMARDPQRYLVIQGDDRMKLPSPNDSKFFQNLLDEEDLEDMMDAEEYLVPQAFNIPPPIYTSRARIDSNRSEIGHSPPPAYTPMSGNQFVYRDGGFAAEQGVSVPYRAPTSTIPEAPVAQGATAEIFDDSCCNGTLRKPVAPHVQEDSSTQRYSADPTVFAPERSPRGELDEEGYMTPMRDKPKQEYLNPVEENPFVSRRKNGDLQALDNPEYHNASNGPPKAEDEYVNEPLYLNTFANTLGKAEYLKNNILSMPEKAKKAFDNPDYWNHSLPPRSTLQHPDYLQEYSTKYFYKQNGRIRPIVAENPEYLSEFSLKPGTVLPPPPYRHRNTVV
T2 sequence (P35968 20-1356): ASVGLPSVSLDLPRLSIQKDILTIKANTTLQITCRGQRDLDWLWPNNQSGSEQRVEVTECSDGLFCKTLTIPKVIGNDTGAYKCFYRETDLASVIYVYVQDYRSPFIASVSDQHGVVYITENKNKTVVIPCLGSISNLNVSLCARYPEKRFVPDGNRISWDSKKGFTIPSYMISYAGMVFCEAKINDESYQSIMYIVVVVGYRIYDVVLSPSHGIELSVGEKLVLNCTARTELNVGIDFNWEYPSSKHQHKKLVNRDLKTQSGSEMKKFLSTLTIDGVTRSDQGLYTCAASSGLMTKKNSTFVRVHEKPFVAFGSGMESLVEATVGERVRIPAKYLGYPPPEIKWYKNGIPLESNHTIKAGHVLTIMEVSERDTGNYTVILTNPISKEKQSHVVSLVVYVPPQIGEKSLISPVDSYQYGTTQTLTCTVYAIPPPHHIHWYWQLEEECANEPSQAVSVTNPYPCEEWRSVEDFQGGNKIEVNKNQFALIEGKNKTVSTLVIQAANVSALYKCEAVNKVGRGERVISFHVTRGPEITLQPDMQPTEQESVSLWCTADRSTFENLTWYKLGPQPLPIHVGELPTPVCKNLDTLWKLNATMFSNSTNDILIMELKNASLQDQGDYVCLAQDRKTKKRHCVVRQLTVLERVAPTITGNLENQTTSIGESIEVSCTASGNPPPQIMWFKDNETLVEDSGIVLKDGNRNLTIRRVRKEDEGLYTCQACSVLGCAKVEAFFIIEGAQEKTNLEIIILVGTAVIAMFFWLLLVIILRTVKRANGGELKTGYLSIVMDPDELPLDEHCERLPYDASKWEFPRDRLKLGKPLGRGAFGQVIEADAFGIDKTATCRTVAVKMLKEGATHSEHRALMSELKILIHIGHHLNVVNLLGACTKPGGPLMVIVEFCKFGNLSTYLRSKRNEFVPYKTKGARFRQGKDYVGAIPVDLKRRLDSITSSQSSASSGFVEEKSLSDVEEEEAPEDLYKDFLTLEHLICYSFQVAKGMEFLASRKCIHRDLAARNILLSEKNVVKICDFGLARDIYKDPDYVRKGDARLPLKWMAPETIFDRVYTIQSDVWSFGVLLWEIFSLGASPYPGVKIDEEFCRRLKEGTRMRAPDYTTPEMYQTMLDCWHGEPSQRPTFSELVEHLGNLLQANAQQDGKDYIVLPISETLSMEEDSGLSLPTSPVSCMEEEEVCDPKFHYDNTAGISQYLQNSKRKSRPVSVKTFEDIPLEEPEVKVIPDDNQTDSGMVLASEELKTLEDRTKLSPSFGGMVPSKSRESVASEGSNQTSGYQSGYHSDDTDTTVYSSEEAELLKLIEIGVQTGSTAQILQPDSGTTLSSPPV

As for `COc1ccc(CCc2cc(OC)c(OC)c(OC)c2)cc1O` [Erianin], the binding in pull-down result at CRAF was “directly bound”. Further, the activity at 0.1 µM at KDR(h) worked out at 96%; at EphB1(h), 91%; on Pim-3(h), 91%; at Flt1(h), 117%; at Pim-2(h), 103%; at Wee1(h) it was 111%. Moreover, the activity at 0.1 µM at eEF-2K(h) is 91%; at A-Raf(h) it was 109%; on CDK5/p25(h), 102%; at Fgr(h) it was 91%; at BTK(h) it was 104%; on Ros(h), 103%.

Regarding `COc1cc2oc(-c3ccc(O)c(O)c3)cc(=O)c2c(O)c1OC` [Cirsiliol], the activity at 10 µM at CSK(h) was found to be 100%; at CK1γ1(h) it was 103%; on FGFR2(h) it was 110%; on NIM1(h), 121%; at ARK5(h), 97%; on EphB2(h), 98%. Also, the activity at 10 µM at DYRK2(h) turned out to be 97%; on FGFR3(h) it was 98%; on Mer(h) it was 109%; at MKK6(h) it was 112%; on MKK4(m), 101%; at CK2(h), 84%. For the same compound, the activity at 10 µM stood at 99% on CDK5/p35(h) and 109% on DCAMKL3(h).

On to `C=C1C(=O)[C@]23[C@H](O)[C@H]1CC[C@H]2[C@@]12CO[C@]3(O)[C@@H](O)[C@@H]1C(C)(C)CC[C@@H]2O` [Oridonin], for which the activity at 10 µM on MST4(h) turned out to be 140%; at SAPK2a(h), 141%; on NEK6(h), 99%; at NEK7(h) it was 101%; at ErbB4(h) it was 91%; on MST2(h), 54%. For the same compound, the activity at 10 µM on NEK1(h) worked out at 77%; at PAK6(h), 104%; on CDK18/cyclinY(h), 65%; on PAK5(h) it was 98%.
